Results reported in PMC9081605, “A High-Throughput Toxicity Screen of 42 Per- and Polyfluoroalkyl Substances (PFAS) and Functional Assessment of Migration and Gene Expression in Human Placental Trophoblast Cells” (Frontiers in Toxicology, 2022).

Tests used:
JEG-3 cells [1] = assay: Proliferation, change in confluence 0-24 h (IncuCyte Zoom, HTTS); format: cell-based, human; conditions: for Prolif ↓, lowest concentration at which the mean response value exceeded the mean control value ± 2*SD (rough binning): decrease; for cellular proliferation relative to vehicle control (rough binning): after 24 h, in at least one concentration
How it was run: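 Confluence measured by automated image masking at 0 h and 24 h after dosing; proliferation = 24 h minus baseline confluence. JEG-3 seeded at 2,500 cells/well, ~30–50% baseline confluence, exposed 24 h to PFAS up to 500 µM in medium with 2.5% methanol vehicle; 37°C, 5% CO2.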

JEG-3 cells [2] = assay: CellTiter-Glo luminescent cell viability assay (HTTS); format: cell-based, human; conditions: for Viability ↓, lowest concentration at which the mean response value exceeded the mean control value ± 2*SD (rough binning): decrease; for cell viability relative to vehicle control (rough binning): after 24 h, in at least one concentration
How it was run: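 JEG-3 cells (2,500/well) adhered overnight, then exposed 24 h to PFAS (methanol stocks; vehicle 2.5% methanol, top concentration 500 µM). Viability read by CellTiter-Glo ATP luminescence in the same wells as mitochondrial membrane potential; wells with 0 h confluence <20% or >80% excluded.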

[3] = JEG-3 cells, 24 h exposure, four-parameter fit, estimates meeting inclusion criteria, read-out: Proliferation EC50 ± SD
[4] = JEG-3 cells, 24 h exposure, four-parameter fit, estimates meeting inclusion criteria, read-out: Viability EC50 ± SD
[5] = Homo sapiens, JEG-3, 24 h, read-out: Proliferation EC50 ± SD, JEG-3 cells, 24 h exposure, four-parameter fit, estimates meeting inclusion criteria
[6] = Homo sapiens, JEG-3, 24 h, read-out: Viability EC50 ± SD, JEG-3 cells, 24 h exposure, four-parameter fit, estimates meeting inclusion criteria

O=C(O)C(F)(F)C(F)(F)C(F)(F)C(F)(F)C(F)(F)C(F)(F)C(F)(F)C(F)(F)F [Perfluorononanoic acid]
Prolif ↓, lowest concentration at which the mean response value exceeded the mean control value ± 2*SD (rough binning) (JEG-3 cells [1]; JEG-3 cells, 24 h): 300 µM
EC50 (JEG-3 cells [1]; [3]): 326 ± 5.5 µM
cellular proliferation relative to vehicle control (rough binning) (JEG-3 cells [1]): reduced cellular proliferation
Viability ↓, lowest concentration at which the mean response value exceeded the mean control value ± 2*SD (rough binning) (JEG-3 cells [2]; JEG-3 cells, 24 h): 350 µM
EC50 (JEG-3 cells [2]; [4]): 333 ± 10.3 µM
cell viability relative to vehicle control (rough binning) (JEG-3 cells [2]): reduced cell viability

N.O=C(O)C(F)(OC(F)(F)C(F)(F)C(F)(F)F)C(F)(F)F (stereo not shown) [Ammonium perfluoro-2-methyl-3-oxahexanoate]
Prolif ↑, lowest concentration at which the mean response value exceeded the mean control value ± 2*SD (rough binning) (JEG-3 cells [1]; JEG-3 cells, 24 h, increase): 50 µM
cellular proliferation relative to vehicle control (rough binning) (JEG-3 cells [1]): increased cellular proliferation
Viability ↓, lowest concentration at which the mean response value exceeded the mean control value ± 2*SD (rough binning) (JEG-3 cells [2]; JEG-3 cells, 24 h): 350 µM
cell viability relative to vehicle control (rough binning) (JEG-3 cells [2]): reduced cell viability

O=S(=O)(O)C(F)(F)C(F)(F)C(F)(F)C(F)(F)C(F)(F)C(F)(F)C(F)(F)C(F)(F)F [Perfluorooctanesulfonic acid]
Prolif ↓, lowest concentration at which the mean response value exceeded the mean control value ± 2*SD (rough binning) (JEG-3 cells [1]; JEG-3 cells, 24 h): 250 µM
EC50 (JEG-3 cells [1]; JEG-3 cells, 24 h exposure, four-parameter fit, estimates meeting inclusion criteria, listed as PFOS, read-out: Proliferation EC50 ± SD): 294 µM
EC50 (JEG-3 cells [1]; [3]): 294 ± 5.8 µM
cellular proliferation relative to vehicle control (rough binning) (JEG-3 cells [1]): reduced cellular proliferation
Viability ↓, lowest concentration at which the mean response value exceeded the mean control value ± 2*SD (rough binning) (JEG-3 cells [2]; JEG-3 cells, 24 h): 300 µM
EC50 (JEG-3 cells [2]; JEG-3 cells, 24 h exposure, four-parameter fit, estimates meeting inclusion criteria, listed as PFOS, read-out: Viability EC50 ± SD): 291 µM
EC50 (JEG-3 cells [2]; [4]): 291 ± 9.1 µM
cell viability relative to vehicle control (rough binning) (JEG-3 cells [2]): reduced cell viability

O=C(O)C(F)(F)C(F)(F)C(F)(F)C(F)(F)C(F)(F)C(F)(F)C(F)(F)F [Perfluorooctanoic acid]
minimal effective concentration (JEG-3 cells [1]; Homo sapiens, JEG-3, 24 h, read-out: Prolif ↓, lowest concentration at which the mean response value exceeded the mean control value ± 2*SD (rough binning)): 350 µM
EC50 (JEG-3 cells [1]; [5]): 344 ± 12.2 µM
cellular proliferation relative to vehicle control (rough binning) (JEG-3 cells [1]): reduced cellular proliferation
EC50 (JEG-3 cells [2]; [6]): 358 ± 16.9 µM
Viability ↑, lowest concentration at which the mean response value exceeded the mean control value ± 2*SD (rough binning) (JEG-3 cells [2]; JEG-3 cells, 24 h, increase): 200 µM

NS(=O)(=O)C(F)(F)C(F)(F)C(F)(F)C(F)(F)C(F)(F)C(F)(F)C(F)(F)C(F)(F)F [Perfluorooctanesulfonamide]
EC50 (JEG-3 cells [1]; [5]): 160 ± 87.8 µM
EC50 (JEG-3 cells [1]; Homo sapiens, JEG-3, 24 h, read-out: proliferation EC50 ± SE, JEG-3 cells, 24 h): 160 ± 90 µM
EC50 (JEG-3 cells [2]; [6]): 175 ± 4.9 µM
EC50 (JEG-3 cells [2]; Homo sapiens, JEG-3, 24 h, read-out: viability EC50 ± SE, JEG-3 cells, 24 h): 176 ± 5 µM
EC50 (JEG-3 cells [2]; read-out: Viability EC50 ± SD, JEG-3 cells, 24 h exposure, four-parameter fit, estimates meeting inclusion criteria): 176 ± 4.9 µM
